# Measured values from patent US10231954B2, “Neurodegenerative therapies” (LYTIX BIOPHARMA AS, priority 2014, dated 2019).
# Experiments:
# Type in all cases: biochemical
# Settings in all cases: 100 micromolar inhibitor concentration, 100 is no change
# TTBK1 = TTBK1 (Homo sapiens, UniProt Q5TCY1); assay: Kinase profiling TTBK1
# Text: (§1) Any value less that 25 is considered to be highly significant inhibition.
# PRAK = biological target: T1, PRAK (Homo sapiens, UniProt Q8IW41); assay: Kinase profiling PRAK
# T1 sequence (Q8IW41 1-473): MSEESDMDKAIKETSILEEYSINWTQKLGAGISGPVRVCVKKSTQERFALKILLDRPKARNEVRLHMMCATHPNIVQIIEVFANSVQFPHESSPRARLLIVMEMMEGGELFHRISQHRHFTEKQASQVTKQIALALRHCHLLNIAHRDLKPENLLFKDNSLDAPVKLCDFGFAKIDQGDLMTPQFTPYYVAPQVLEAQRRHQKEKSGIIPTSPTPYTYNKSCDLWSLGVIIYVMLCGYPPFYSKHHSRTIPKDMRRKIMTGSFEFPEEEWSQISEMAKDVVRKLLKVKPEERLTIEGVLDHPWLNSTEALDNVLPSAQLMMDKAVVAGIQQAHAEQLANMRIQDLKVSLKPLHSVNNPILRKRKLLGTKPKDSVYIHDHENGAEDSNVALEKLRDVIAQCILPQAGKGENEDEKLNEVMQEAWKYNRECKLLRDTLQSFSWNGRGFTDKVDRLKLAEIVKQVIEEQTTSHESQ
# Text: as §1
# MAPKAP-K2 = MAPKAP-K2 (Homo sapiens, UniProt P49137); assay: Kinase profiling MAPKAP-K2
# Text: as §1
# MNK2 = MNK2 (Homo sapiens, UniProt Q9HBH9); assay: Kinase profiling MNK2
# Text: as §1
# WNK1 = WNK1 (Homo sapiens, UniProt Q9H4A3); assay: Kinase profiling WNK1
# Text: as §1
# IKKb = biological target: T2, IKKb (Homo sapiens, UniProt O14920); assay: Kinase profiling IKKb
# T2 sequence (O14920 1-756): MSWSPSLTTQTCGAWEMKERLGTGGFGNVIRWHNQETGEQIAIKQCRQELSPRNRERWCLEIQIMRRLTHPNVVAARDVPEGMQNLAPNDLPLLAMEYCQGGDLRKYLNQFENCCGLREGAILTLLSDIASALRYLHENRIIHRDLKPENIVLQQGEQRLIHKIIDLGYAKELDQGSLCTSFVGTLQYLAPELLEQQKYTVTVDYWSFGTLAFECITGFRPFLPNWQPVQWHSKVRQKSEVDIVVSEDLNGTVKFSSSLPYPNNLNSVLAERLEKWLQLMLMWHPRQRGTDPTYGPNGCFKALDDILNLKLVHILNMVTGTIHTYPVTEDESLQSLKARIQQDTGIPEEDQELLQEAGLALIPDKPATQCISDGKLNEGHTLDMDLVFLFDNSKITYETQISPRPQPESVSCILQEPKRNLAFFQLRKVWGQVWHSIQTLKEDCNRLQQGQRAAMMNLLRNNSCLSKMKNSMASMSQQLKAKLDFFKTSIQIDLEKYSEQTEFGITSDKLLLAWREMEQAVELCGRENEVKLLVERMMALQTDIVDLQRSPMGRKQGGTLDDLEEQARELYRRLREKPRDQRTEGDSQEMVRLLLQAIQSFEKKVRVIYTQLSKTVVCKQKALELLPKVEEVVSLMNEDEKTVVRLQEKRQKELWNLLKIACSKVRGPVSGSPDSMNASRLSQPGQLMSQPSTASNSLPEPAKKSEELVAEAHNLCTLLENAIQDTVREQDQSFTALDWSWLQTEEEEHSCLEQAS
# Text: as §1
# IRR = IRR (Homo sapiens, UniProt P14616); assay: Kinase profiling IRR
# Text: as §1
# IR = IR (Homo sapiens, UniProt P06213); assay: Kinase profiling IR
# Text: as §1
# PDGFRA = PDGFRA (Homo sapiens, UniProt P16234); assay: Kinase profiling PDGFRA
# Text: as §1
# ERK5 = ERK5 (Homo sapiens, UniProt Q13164); assay: Kinase profiling ERK5
# Text: as §1
# MPSK1 = MPSK1 (Homo sapiens, UniProt O75716); assay: Kinase profiling MPSK1
# Text: as §1
# CDK9-Cyclin T1 = CDK9-Cyclin T1 (Homo sapiens, UniProt P50750); assay: Kinase profiling CDK9-Cyclin T1
# Text: as §1
# ULK1 = biological target: T3, ULK1 (Homo sapiens, UniProt O75385); assay: Kinase profiling ULK1
# T3 sequence (O75385 1-1050): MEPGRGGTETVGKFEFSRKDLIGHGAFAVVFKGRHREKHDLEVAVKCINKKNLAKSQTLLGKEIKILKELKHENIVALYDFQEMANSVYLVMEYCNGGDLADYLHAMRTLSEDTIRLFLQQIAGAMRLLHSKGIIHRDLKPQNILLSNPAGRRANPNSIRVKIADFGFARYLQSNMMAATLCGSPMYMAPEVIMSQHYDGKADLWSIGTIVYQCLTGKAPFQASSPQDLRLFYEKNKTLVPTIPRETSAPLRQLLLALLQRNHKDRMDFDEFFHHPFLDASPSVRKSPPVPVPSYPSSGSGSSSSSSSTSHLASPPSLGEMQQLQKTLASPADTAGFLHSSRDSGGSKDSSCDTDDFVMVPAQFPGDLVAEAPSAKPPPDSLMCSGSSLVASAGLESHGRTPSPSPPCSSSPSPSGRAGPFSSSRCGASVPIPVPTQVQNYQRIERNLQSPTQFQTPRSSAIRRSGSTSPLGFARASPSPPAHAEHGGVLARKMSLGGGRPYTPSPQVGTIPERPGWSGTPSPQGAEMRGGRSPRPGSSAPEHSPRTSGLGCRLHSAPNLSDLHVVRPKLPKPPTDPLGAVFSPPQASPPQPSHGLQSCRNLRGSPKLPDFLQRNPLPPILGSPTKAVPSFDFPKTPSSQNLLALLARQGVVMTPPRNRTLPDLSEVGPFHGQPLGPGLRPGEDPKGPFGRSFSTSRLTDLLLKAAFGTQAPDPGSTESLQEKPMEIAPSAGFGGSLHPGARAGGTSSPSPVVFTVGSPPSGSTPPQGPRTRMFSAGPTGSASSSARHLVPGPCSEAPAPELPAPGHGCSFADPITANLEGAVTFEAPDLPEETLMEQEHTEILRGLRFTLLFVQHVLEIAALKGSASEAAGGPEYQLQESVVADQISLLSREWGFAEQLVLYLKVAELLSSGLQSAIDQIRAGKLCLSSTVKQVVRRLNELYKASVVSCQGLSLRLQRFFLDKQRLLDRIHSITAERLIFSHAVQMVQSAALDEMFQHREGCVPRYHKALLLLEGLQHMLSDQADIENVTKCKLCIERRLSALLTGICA
# Text: as §1
# Chain of ERK5 (Q13164 whole entry, species assumed): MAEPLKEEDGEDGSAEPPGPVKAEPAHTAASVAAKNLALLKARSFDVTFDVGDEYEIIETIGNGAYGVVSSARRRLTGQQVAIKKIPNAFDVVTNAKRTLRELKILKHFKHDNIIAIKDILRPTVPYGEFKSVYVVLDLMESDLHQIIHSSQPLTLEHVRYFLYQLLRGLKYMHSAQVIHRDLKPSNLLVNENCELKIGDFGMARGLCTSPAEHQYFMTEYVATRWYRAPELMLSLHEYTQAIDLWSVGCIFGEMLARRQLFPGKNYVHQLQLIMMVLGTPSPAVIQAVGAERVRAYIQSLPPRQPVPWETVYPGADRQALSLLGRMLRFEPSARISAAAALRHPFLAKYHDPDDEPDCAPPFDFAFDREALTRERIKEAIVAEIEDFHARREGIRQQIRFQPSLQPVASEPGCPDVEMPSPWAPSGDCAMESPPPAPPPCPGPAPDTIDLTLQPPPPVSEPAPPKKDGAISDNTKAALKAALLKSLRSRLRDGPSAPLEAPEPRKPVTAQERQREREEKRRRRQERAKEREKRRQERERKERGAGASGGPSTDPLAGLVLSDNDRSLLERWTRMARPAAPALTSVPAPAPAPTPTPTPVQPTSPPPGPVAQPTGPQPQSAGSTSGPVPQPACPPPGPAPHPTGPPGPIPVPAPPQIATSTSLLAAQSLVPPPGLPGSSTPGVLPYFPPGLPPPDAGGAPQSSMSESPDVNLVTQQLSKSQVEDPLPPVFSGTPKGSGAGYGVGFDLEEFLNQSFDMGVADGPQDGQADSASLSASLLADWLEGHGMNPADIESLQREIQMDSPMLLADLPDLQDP
# Chain of CDK9-Cyclin T1 (P50750 whole entry): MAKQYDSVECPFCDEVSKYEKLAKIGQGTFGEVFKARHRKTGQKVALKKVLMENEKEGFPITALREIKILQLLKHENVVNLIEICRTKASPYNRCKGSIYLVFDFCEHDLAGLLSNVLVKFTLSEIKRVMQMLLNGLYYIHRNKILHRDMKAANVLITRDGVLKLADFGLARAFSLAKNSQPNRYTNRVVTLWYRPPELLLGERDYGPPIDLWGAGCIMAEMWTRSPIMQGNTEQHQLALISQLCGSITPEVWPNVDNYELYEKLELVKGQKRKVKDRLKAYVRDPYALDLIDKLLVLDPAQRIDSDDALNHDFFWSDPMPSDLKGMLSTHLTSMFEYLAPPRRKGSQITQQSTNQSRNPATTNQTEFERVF
# Chain of CDK9-Cyclin T1 (O60563 whole entry partner): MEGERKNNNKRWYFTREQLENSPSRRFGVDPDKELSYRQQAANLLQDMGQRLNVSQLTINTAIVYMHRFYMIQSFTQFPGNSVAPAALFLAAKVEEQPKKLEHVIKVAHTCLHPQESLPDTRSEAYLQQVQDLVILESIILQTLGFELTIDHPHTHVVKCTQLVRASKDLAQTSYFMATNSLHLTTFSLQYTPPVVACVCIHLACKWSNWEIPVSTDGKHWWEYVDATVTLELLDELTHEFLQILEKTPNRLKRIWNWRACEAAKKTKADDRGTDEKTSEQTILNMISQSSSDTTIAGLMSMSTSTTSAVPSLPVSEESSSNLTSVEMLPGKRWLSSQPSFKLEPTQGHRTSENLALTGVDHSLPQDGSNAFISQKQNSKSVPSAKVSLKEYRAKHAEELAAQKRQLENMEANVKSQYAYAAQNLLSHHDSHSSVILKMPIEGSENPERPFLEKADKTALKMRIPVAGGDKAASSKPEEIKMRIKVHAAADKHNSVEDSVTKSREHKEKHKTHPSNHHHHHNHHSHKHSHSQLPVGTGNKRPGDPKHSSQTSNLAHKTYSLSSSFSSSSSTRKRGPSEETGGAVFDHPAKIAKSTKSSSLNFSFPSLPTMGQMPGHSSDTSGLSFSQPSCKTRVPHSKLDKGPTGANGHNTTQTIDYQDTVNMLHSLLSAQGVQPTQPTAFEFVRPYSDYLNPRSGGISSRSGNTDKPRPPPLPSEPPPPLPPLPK
# Chain of IR (P06213 28-1382): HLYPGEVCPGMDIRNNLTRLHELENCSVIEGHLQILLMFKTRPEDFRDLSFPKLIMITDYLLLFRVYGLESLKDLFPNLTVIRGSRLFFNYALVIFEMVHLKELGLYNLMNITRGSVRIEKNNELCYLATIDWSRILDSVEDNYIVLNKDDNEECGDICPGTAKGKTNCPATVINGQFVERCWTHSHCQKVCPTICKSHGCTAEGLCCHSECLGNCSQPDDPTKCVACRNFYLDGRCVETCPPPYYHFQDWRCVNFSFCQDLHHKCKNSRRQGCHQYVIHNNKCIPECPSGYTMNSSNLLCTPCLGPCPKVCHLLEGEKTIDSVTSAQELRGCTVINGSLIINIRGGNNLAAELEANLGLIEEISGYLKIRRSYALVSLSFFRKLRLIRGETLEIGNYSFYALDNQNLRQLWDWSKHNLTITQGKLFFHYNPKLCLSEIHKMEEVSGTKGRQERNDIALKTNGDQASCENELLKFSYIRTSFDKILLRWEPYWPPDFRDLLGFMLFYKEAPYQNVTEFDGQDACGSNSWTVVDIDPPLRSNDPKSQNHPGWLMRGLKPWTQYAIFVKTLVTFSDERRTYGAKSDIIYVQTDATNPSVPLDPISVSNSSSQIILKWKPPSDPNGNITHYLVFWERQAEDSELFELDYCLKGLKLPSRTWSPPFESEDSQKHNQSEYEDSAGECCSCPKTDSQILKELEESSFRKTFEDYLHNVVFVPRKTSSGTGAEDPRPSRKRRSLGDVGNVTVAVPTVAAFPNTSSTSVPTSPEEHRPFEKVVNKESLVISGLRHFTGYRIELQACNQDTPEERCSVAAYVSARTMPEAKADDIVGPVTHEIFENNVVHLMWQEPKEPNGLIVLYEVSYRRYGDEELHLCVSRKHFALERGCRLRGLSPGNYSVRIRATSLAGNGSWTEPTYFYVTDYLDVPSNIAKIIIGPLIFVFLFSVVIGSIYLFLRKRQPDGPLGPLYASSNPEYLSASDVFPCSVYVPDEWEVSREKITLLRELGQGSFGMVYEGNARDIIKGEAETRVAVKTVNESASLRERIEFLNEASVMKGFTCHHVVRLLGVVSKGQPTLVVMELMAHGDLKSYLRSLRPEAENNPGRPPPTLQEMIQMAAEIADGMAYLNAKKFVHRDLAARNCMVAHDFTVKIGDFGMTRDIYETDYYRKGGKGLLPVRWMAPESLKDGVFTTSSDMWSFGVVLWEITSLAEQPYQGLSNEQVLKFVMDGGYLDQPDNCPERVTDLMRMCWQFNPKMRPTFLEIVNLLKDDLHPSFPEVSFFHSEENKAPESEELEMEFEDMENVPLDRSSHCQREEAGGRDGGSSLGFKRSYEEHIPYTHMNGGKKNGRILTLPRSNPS
# Chain of PDGFRA (P16234 24-1089, species assumed): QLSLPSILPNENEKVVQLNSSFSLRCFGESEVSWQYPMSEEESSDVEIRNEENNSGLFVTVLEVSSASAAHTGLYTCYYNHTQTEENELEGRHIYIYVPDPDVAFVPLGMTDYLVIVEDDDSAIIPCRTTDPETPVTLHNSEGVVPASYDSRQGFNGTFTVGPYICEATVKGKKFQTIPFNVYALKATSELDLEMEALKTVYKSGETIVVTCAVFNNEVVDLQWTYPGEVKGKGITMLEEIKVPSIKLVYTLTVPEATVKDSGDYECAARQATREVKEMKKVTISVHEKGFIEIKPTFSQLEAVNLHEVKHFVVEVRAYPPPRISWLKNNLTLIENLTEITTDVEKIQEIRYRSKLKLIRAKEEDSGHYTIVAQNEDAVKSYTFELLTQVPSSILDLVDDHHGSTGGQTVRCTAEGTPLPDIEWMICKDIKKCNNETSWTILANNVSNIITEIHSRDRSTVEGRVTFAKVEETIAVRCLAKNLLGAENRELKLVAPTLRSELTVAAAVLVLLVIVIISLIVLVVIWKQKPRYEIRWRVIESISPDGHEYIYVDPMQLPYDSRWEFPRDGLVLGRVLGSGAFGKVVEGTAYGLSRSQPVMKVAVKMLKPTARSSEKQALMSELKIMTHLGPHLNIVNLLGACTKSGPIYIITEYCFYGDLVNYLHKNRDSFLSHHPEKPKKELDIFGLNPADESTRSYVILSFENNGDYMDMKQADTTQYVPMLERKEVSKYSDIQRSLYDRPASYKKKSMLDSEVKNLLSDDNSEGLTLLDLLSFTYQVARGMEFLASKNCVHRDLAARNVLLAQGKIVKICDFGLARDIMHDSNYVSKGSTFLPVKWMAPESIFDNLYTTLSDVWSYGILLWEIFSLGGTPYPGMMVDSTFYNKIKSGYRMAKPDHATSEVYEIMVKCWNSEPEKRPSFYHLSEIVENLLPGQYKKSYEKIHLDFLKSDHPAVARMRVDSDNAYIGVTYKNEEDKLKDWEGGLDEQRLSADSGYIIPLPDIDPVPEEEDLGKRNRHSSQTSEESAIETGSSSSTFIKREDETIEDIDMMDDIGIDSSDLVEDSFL
# Chain of MAPKAP-K2 (P49137 whole entry, species assumed): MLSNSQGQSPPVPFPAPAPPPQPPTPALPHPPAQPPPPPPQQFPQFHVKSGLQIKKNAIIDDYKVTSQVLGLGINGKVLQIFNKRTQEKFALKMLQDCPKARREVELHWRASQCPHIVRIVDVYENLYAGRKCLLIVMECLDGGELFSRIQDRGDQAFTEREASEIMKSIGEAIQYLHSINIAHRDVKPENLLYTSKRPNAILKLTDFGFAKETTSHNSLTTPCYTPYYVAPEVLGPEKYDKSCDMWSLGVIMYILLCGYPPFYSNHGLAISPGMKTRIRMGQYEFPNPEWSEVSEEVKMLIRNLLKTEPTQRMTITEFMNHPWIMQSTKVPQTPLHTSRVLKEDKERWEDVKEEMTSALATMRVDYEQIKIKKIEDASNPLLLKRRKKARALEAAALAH
# Chain of MPSK1 (O75716 whole entry, species assumed): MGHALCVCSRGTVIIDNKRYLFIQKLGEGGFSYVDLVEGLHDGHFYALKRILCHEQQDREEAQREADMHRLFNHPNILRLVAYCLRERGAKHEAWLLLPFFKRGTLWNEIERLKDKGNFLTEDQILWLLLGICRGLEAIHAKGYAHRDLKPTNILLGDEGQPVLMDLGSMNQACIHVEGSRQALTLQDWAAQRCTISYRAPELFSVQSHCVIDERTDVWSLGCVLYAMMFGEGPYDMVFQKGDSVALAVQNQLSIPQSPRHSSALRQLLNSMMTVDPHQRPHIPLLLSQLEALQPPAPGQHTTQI
Compound,"residual kinase activity, TTBK1 (TTBK1)","residual kinase activity, PRAK (PRAK)","residual kinase activity, MAPKAP-K2 (MAPKAP-K2)","residual kinase activity, MNK2 (MNK2)","residual kinase activity, WNK1 (WNK1)","residual kinase activity, IKKb (IKKb)","residual kinase activity, IRR (IRR)","residual kinase activity, IR (IR)","residual kinase activity, PDGFRA (PDGFRA)","residual kinase activity, ERK5 (ERK5)","residual kinase activity, MPSK1 (MPSK1)","residual kinase activity, CDK9-Cyclin T1 (CDK9-Cyclin T1)","residual kinase activity, ULK1 (ULK1)",also measured
CC(=O)Nc1nc2cc(C)ccc2s1 [Compound 03-76],84,75,105,81,104,59,66,97,59,62,91,49,82,
CC(=O)Nc1nc2cc(F)ccc2s1 [Compound 03-77],,,,,,,,,,,,,,"remaining activity at 100 µM (TTBK1; read-out: residual kinase activity, TTBK1): 80%; remaining activity at 100 µM (PRAK; read-out: residual kinase activity, PRAK): 76%; remaining activity at 100 µM (MAPKAP-K2; read-out: residual kinase activity, MAPKAP-K2): 106%; remaining activity at 100 µM (MNK2; read-out: residual kinase activity, MNK2): 86%; remaining activity at 100 µM (WNK1; read-out: residual kinase activity, WNK1): 99%; remaining activity at 100 µM (IKKb; read-out: residual kinase activity, IKKb): 61%; remaining activity at 100 µM (IRR; read-out: residual kinase activity, IRR): 57%; remaining activity at 100 µM (IR; read-out: residual kinase activity, IR): 87%; remaining activity at 100 µM (PDGFRA; read-out: residual kinase activity, PDGFRA): 59%; remaining activity at 100 µM (ERK5; read-out: residual kinase activity, ERK5): 38%; remaining activity at 100 µM (MPSK1; read-out: residual kinase activity, MPSK1): 86%; remaining activity at 100 µM (CDK9-Cyclin T1; read-out: residual kinase activity, CDK9-Cyclin T1): 46%; remaining activity at 100 µM (ULK1; read-out: residual kinase activity, ULK1): 83%"
O=C(Nc1nc2ccc(O)cc2s1)c1ccncc1 [Compound 08-42],70,74,72,33,89,82,71,51,40,41,77,66,69,
O=C(Nc1nc2ccc(O)cc2s1)c1cccnc1 [Compound 08-44],47,60,56,36,99,63,45,35,44,43,81,43,78,
